{"source": "ChEMBL document CHEMBL4627399", "about": "“Synthesis and Structure-Activity Relationships of 5'-Aryl-14-alkoxypyridomorphinans: Identification of a μ Opioid Receptor Agonist/δ Opioid Receptor Antagonist Ligand with Systemic Antinociceptive Activity and Diminished Opioid Side Effects” (J Med Chem, 2020)", "key": {"[1]": {"assay": "Stability in human liver microsomes at 1 uM measured up to 60 mins by LC-MS/MS analysis", "type": "ADME, Microsome", "conditions": "1 h"}, "Mus musculus [2]": {"system": "Mus musculus", "assay": "Antinociceptive activity in CD-1 mouse administered twice daily at 9 am and 5 pm for 3 days measured on day 4 by warm water tail-flick assay", "type": "functional"}, "[3]": {"assay": "Reward liability in CD-1 mouse assessed as increase in conditioned place preference at 20 mg/kg, sc administered for 5 days and measured on day 5 for 15 mins", "type": "ADME, organism-based", "conditions": "in vivo"}, "[4]": {"assay": "Induction of spontaneous withdrawal in CD-1 mouse assessed as effect on jumping behavior at 32 mg/kg, sc and administered twice daily at 9 am and 5 pm for 3 days and measured on day 4 for 30 mins", "type": "organism-based", "conditions": "in vivo, 0.5 h"}, "[5]": {"assay": "Induction of tidal volume in CD-1 mouse up to 32 mg/kg, ip administered via bolus under 5% CO2 exposure for 7 mins and measured over 45 mins by whole body plethysmography", "type": "organism-based", "conditions": "in vivo"}, "[6]": {"assay": "Induction of respiratory depression in CD-1 mouse assessed as reduction in minute ventilation at 32 mg/kg, ip measured over 45 mins by plethysmography", "type": "organism-based", "conditions": "in vivo"}, "[7]": {"assay": "Induction of spontaneous withdrawal in CD-1 mouse assessed as ptosis at 32 mg/kg, sc and administered twice daily at 9 am and 5 pm for 3 days and measured on day 4 for 30 mins", "type": "organism-based", "conditions": "in vivo, 0.5 h"}, "[8]": {"target": "T1, Kappa-type opioid receptor (Homo sapiens, UniProt P41145)", "assay": "Displacement of [3H]-diprenorphine from human kappa opioid receptor expressed in CHO cell membranes incubated for 1 hr by competition radioligand binding assay"}, "Mus musculus [9]": {"system": "Mus musculus", "assay": "Antinociceptive activity in iv dosed CD-1 mouse measured after 10 to 180 mins by warm water tail-flick assay", "type": "functional, organism-based"}, "[10]": {"assay": "Reward liability in CD-1 mouse assessed as increase in conditioned place aversion at 20 mg/kg, sc administered for 5 days and measured on day 5 for 15 mins", "type": "ADME, organism-based", "conditions": "in vivo, 0.25 h"}, "[11]": {"assay": "Induction of physical dependence/precipitated withdrawal in naloxone-induced CD-1 mouse assessed as overall withdrawal score at 32 mg/kg, sc administered twice daily at 9 am and 5 pm for 3 days pretreated followed by naloxone challenge on day 4 at 4 hrs post compound dose and measured for 40 mins", "type": "organism-based", "conditions": "in vivo"}, "[12]": {"assay": "Induction of spontaneous withdrawal in CD-1 mouse assessed as effect on number of droppings at 32 mg/kg, sc and administered twice daily at 9 am and 5 pm for 3 days and measured on day 4 for 30 mins", "type": "organism-based", "conditions": "in vivo, 0.5 h"}, "[13]": {"target": "T2, Delta-type opioid receptor (Homo sapiens, UniProt P41143)", "assay": "Antagonist activity at human delta opioid receptor expressed in CHO cell membranes assessed as reduction in SNC80-induced [35S]GTPgammaS binding preincubated for 5 mins followed by SNC80 addition and measured after 1 hr", "type": "functional"}, "[14]": {"assay": "Induction of spontaneous withdrawal in CD-1 mouse assessed as effect on urine output at 32 mg/kg, sc administered twice daily at 9 am and 5 pm for 3 days and measured on day 4 for 30 mins", "type": "organism-based", "conditions": "in vivo"}, "[15]": {"assay": "Induction of physical dependence in naloxone-induced CD-1 mouse assessed as increase in jumping behavior at 32 mg/kg, sc administered twice daily at 9 am and 5 pm for 3 days pretreated followed by naloxone challenge on day 4 at 4 hrs post compound dose and measured for 40 mins", "type": "organism-based", "conditions": "in vivo"}, "Mus musculus [16]": {"system": "Mus musculus", "assay": "Antinociceptive activity in CD-1 mouse at 1 to 10 mg/kg, iv measured after 15 to 90 mins by warm water tail-flick assay", "type": "functional, organism-based"}, "[17]": {"assay": "Induction of spontaneous withdrawal in naloxone-induced CD-1 mouse assessed as increase in fecal pellets at 32 mg/kg, sc administered twice daily at 9 am and 5 pm for 3 days pretreated followed by naloxone challenge on day 4 at 4 hrs post compound dose and measured for 40 mins", "type": "organism-based", "conditions": "in vivo"}, "[18]": {"assay": "Induction of spontaneous withdrawal in CD-1 mouse assessed as wet dog shakes at 32 mg/kg, sc and administered twice daily at 9 am and 5 pm for 3 days and measured on day 4 for 30 mins", "type": "organism-based", "conditions": "in vivo, 0.5 h"}, "[19]": {"assay": "Induction of spontaneous withdrawal in CD-1 mouse assessed as effect on backward walking steps at 32 mg/kg, sc and administered twice daily at 9 am and 5 pm for 3 days and measured on day 4 for 30 mins", "type": "organism-based", "conditions": "in vivo, 0.5 h"}, "[20]": {"assay": "Induction of spontaneous withdrawal in CD-1 mouse assessed as effect on fecal output at 32 mg/kg, sc and administered twice daily at 9 am and 5 pm for 3 days and measured on day 4 for 30 mins", "type": "organism-based", "conditions": "in vivo"}, "[21]": {"target": "T1, Kappa-type opioid receptor", "assay": "Agonist activity at human kappa opioid receptor expressed in CHO cell membranes incubated for 1 hr by [35S]GTPgammaS binding assay", "type": "functional", "conditions": "cho"}, "[22]": {"target": "T2, Delta-type opioid receptor", "assay": "Displacement of [3H]-diprenorphine from human delta opioid receptor expressed in CHO cell membranes incubated for 1 hr by competition radioligand binding assay"}, "[23]": {"assay": "Induction of spontaneous withdrawal in CD-1 mouse assessed as paw tremors at 32 mg/kg, sc and administered twice daily at 9 am and 5 pm for 3 days and measured on day 4 for 30 mins", "type": "organism-based", "conditions": "in vivo, 0.5 h"}, "[24]": {"assay": "Induction of respiratory depression in CD-1 mouse assessed as reduction in tidal volume at 32 mg/kg, ip measured over 45 mins by plethysmography", "type": "organism-based", "conditions": "in vivo"}, "[25]": {"assay": "Induction of respiratory depression in CD-1 mouse assessed as reduction in respiratory rate at 32 mg/kg, ip measured over 45 mins by plethysmography", "type": "organism-based", "conditions": "in vivo"}, "Mus musculus [26]": {"system": "Mus musculus", "assay": "Antinociceptive activity in naloxone induced CD-1 mouse at 32 mg/kg, sc measured over 4 hrs by warm water tail-flick assay", "type": "functional, organism-based"}, "[27]": {"assay": "Induction of spontaneous withdrawal in naloxone-induced CD-1 mouse assessed as increase in urine output at 32 mg/kg, sc administered twice daily at 9 am and 5 pm for 3 days pretreated followed by naloxone challenge on day 4 at 4 hrs post compound dose and measured for 40 mins", "type": "organism-based", "conditions": "in vivo"}, "[28]": {"target": "T1, Kappa-type opioid receptor", "assay": "Agonist activity at human kappa opioid receptor expressed in CHO cell membranes assessed as stimulation of [35S]GTPgammaS binding incubated for 1 hr relative to […]", "type": "functional"}}, "note": "Activity calls are given as the source filed them. The rule behind the calls is not given here.", "data": [{"smiles": "COc1cccc(-c2cnc3c(c2)C[C@@]2(OCCCc4ccccc4)[C@H]4Cc5ccc(O)c6c5[C@@]2(CCN4CC2CC2)[C@H]3O6)c1", "values": [{"measurement": "Stability", "setting": "[1]", "result": "Stable"}, {"measurement": "ED50", "setting": "Mus musculus [2]", "result": 25.4, "unit": "mg/kg"}, {"measurement": "Activity", "setting": "[3]", "result": "Non-Toxic"}, {"measurement": "Activity", "setting": "[4]", "result": "Non-Toxic"}, {"measurement": "Activity", "setting": "[5]", "result": "Toxic"}, {"measurement": "Activity", "setting": "[6]", "result": "Non-Toxic"}, {"measurement": "Activity", "setting": "[7]", "result": "Non-Toxic"}, {"measurement": "Ki", "setting": "[8]", "result": 103, "unit": "nM"}, {"measurement": "Activity", "setting": "Mus musculus [9]", "result": "Dose-dependent effect"}, {"measurement": "Activity", "setting": "[10]", "result": "Non-Toxic"}, {"measurement": "Activity", "setting": "[11]", "result": "Toxic"}, {"measurement": "Activity", "setting": "[12]", "result": "Non-Toxic"}, {"measurement": "IC50", "setting": "[13]", "result": 2.4, "unit": "nM"}, {"measurement": "Activity", "setting": "[14]", "result": "Non-Toxic"}, {"measurement": "Activity", "setting": "[15]", "result": "Non-Toxic"}, {"measurement": "Activity", "setting": "Mus musculus [16]", "result": "Active"}, {"measurement": "Activity", "setting": "[17]", "result": "Toxic"}, {"measurement": "Activity", "setting": "[18]", "result": "Non-Toxic"}, {"measurement": "Activity", "setting": "[19]", "result": "Non-Toxic"}, {"measurement": "Activity", "setting": "[20]", "result": "Non-Toxic"}, {"measurement": "EC50", "setting": "[21]", "result": "Not Active"}, {"measurement": "Ki", "setting": "[22]", "result": 48, "unit": "nM"}, {"measurement": "Activity", "setting": "[23]", "result": "Non-Toxic"}, {"measurement": "Activity", "setting": "[24]", "result": "Non-Toxic"}, {"measurement": "Activity", "setting": "[25]", "result": "Non-Toxic"}, {"measurement": "Activity", "setting": "Mus musculus [26]", "result": "inactive"}, {"measurement": "Activity", "setting": "[27]", "result": "Toxic"}, {"measurement": "Emax", "setting": "[28]", "result": "inactive"}]}]}
